Data: patent US8318146B1, “Ascarosides as nematode sex pheromones” (The United States of America, as represented by the …, priority 2008, dated 2012)

Columns and labels:
[1] = system: adult male Caenorhabditis elegans; assay: Caenorhabditis mating assay (male attraction, time spent in scoring region); assay type: in vivo; details: for male attraction activity, each ascaroside tested individually at physiological concentrations: 0 to 10 fmol for ascr#3, 0 to 100 fmol for ascr#2; for male attraction when assayed individually: 10 fmol ascr#3, 100 fmol ascr#2; for shape of dose-response curve: 0.1 fmol to 10,000 fmol (FIG. 4); for male attraction activity at higher concentrations: above the physiological range; for activity in the attraction assay: 0 to 10000 fmol range
Procedure: Wild-type C. elegans var. N2 Bristol and males from the CB1490 him-5(e1490) mutant were utilized in bioassays. The him-5(e1490) mutant segregates XO male progeny by X chromosome nondisjunction during meiosis. All strains were maintained at 20° C. unless detailed otherwise.
Standard nematode growth medium plates (5 cm diameter) were used for assaying biological activity of the nematode conditioned water. The assay plates comprised of a thin lawn of an overnight grown E. coli OP50 culture with an approximate 0.25 cm gap between the bacterial lawn and the edge of the plate to prevent the nematodes from escaping. Plates were stored at room temperature (20° C.) for two days before being used in trials. Two spots (5 mm in diameter) were spotted 1.6 cm apart from each other on a template and stuck to the bottom of the assay plate. 0.8 μl of the control and the nematode metabolite were placed in the two circles and allowed to dry for approximately 30 seconds. To remove any bias, control and conditioned water spots were interchanged after every trial. Males and hermaphrodites were harvested daily at the fourth larval stage (L4) and stored at 20° C. overnight with 50-60 nematodes of the same sex per plate to be used as young adults the following day. Five nematodes were placed at approximately 1.0 cm away on each side (10 nematodes total) from the spots and allowed to acclimatize for 5 minutes. Trials were videotaped at 30 frames per second for 15 minutes using the Fire-i Unibrain software. For each sample, a minimum of 4-5 trials were conducted each day and each stage was tested on at least three different days.
Each time a nematode entered and left the scoring region it was scored as a nematode event. The time the nematode entered the scoring region and left the scoring region was recorded. Once inside the scoring region, the average time spent by each nematode was noted and the average time spent by the different nematode in the scoring region during the 15 minute interval (control and the conditioned water) were calculated.

[2] = Stability of ascr#2 and ascr#3 in agar plates (LC-MS); assay type: physicochemical; details: agar plates with 200 nM stored at room temperature for three months; extract in 1 ml methanol
Procedure: Agar plates (total volume: 20 ml) prepared from Nobel agar and S-media containing ascr#2 and ascr#3 at a concentration of 200 nM were stored at room temperature for three months and subsequently lyophilized. The residue was powdered using a mortar and extracted with ethanol. The extract was evaporated to dryness, redissolved in 1 ml of methanol, and analyzed via LC-MS, using an Agilent 1100 HPLC system equipped with a 10×250 mm Supelco 5μ ODS preparative column eluted at a flow rate of 3.4 ml/min, and a Micromass Quattro II triple-quadrupole mass spectrometer operated in positive-electrospray ionization mode. A solvent gradient was used starting with a solvent composition of 5% methanol and 95% water, which was maintained for three minutes and then progressed linearly to 100% methanol by 40 minutes, resulting in retention times of 21.3 min (ascr#3) and 25.6 min (ascr#2).

Male C. elegans = assay: Reversal frequency of males on ascaroside agar plates (automated nematode tracker); assay type: in vivo, Caenorhabditis elegans
Procedure: Given the nature of the attraction assay, the exact concentration of the compounds tested in the scoring region is not well defined. […] A system used to track the sinusoidal movement of nematodes is disclosed in Cronin et al., 2005. BMC Genet. 6:5 and incorporated herein by reference.
For the tracker assays, standard nematode growth medium was prepared and added the different ascarosides to the required concentrations into the agar. Plates containing the ascarosides were then allowed to cool and stored at 20° C. overnight. Control plates were treated the same way except that instead of the ascaroside, an equivalent quantity of 100% ethanol was added to the agar. Assay plates were seeded with a thin lawn of an overnight grown E. coli OP50 culture and allowed to dry overnight. 10-15 L4 males were picked 14-16 hours before the experiment on E. coli OP50 seeded plates. For each assay, individual males were picked and placed on assay plates. After 5 minutes, males were assayed for 15 min using the automated tracker to get the different locomotion parameters. For each concentration of ascaroside, an equal number of males were tested on control plates. After the recordings, nematodes were processed using automated tracker software and the results were analyzed using in-house matlab scripts.

SMILES	male attraction activity, each ascaroside tested individually at physiological concentrations ([1]; FIG. 4)	male attraction when assayed individually [1]	shape of dose-response curve ([1]; single ascaroside)	male attraction activity at higher concentrations ([1]; single ascaroside)	rank of male attraction response among single ascarosides ([1]; single ascaroside, FIG. 4)	time spent in spotted region relative to control region (maximum) ([1]; single ascaroside, FIG. 4)	concentration in the agar extract [2]	lowest concentration that increases reversal frequency (Male C. elegans; ascaroside in agar, FIG. 6A)	male attractant concentration lower than required for dauer induction (Male C. elegans; comparison with dauer induction)	activity in the attraction assay ([1]; single ascaroside)	increase of reversal frequency (Male C. elegans; ascaroside in agar, FIG. 6B)
C[C@H](CCCC/C=C/C(=O)O)O[C@@H]1O[C@@H](C)[C@H](O)C[C@H]1O [ASCR #3, 8R-(Tetrahydro-3′R,5′R-dihydroxy-6′S-methyl-2H-pyran-2′R-yloxy)-2E-nonenoic acid]	not active	did not elicit significant male attraction	strongly biphasic activity profile	active	strongest response	approximately 6.6 fold	3.2 µM	1 pM	more than 10.000 fold		
C[C@H](CCCCC(=O)O)O[C@@H]1O[C@@H](C)[C@H](O)C[C@H]1O [ASCR #1, 6R-(Tetrahydro-3′R,5′R-dihydroxy-6′S-methyl-2H-pyran-2′R-yloxy)-heptanoic acid]										not active	
CC(=O)CC[C@@H](C)O[C@@H]1O[C@@H](C)[C@H](O)C[C@H]1O[C@@H]1O[C@H](CO)[C@@H](O)[C@H](O)[C@H]1O [ASCR #4, 5R-(3′-O-[β-D-glucosyl]-tetrahydro-3′R,5′R-dihydroxy-6′S-methyl-2H-pyran-2′R-yloxy)-2-hexanone]										not active	
CC(=O)CC[C@@H](C)O[C@@H]1O[C@@H](C)[C@H](O)C[C@H]1O [ASCR #2, 5R-(Tetrahydro-3′R,5′R-dihydroxy-6′S-methyl-2H-pyran-2′R-yloxy)-2-hexanone]	not active	did not elicit significant male attraction	strongly biphasic activity profile	active		~2.8 fold	3.5 µM				only weak increases
